As a reminder, the MIC is the lowest concentration found to suppress growth. A low value points to inhibition by little substance.

Our source for the MIC values is DBAASP.

Holding throughout (assay): ≥ marks a high value that may be exact or a test limit, other limits are often not marked, values filed in µg/mL are converted to µM
Test [1] concerns Bacillus subtilis KCTC 1998.
Test [2] concerns Candida albicans KCTC 7270.
The subject of test [3] is Escherichia coli ATCC 25922.
The test system of test [4] is Escherichia coli CCARM 1229.
Test [5] has as its system Escherichia coli CCARM 1238.
Test [6] relates to Listeria monocytogenes KCTC 3710.
Test [7] relates to Pseudomonas aeruginosa 4007.
Test [8] concerns Pseudomonas aeruginosa 4891.
Test [9] concerns Pseudomonas aeruginosa ATCC 27853.
Test [10] has as its system Salmonella typhimurium KCTC 1926.
For test [11], the system named is Staphylococcus aureus ATCC 25923.
In test [12] the test system is Staphylococcus aureus CCARM 3090.
Test [13] concerns Staphylococcus aureus CCARM 3518.
The subject of test [14] is Trichosporon beigelii KCTC 7707.
Test [15] concerns Staphylococcus aureus ATCC 33592.
Test [16] relates to Bacillus subtilis CMCC 63501.
The test system of test [17] is Enterococcus faecalis ATCC 29212.
Test [18] deals with Escherichia coli 078.
In test [19] the test system is Escherichia coli K88.
The test system of test [20] is Escherichia coli K99.
The test system of test [21] is Escherichia coli UB1005.
Test [22] relates to Salmonella enterica subsp. enterica serovar Pullorum C79-13.
In test [23] the test system is Salmonella enterica subsp. enterica serovar Typhimurium ATCC 14028.
Test [24] has as its system Salmonella enterica subsp. enterica serovar Typhimurium C77-31.
The test system of test [25] is Staphylococcus aureus ATCC 29213.
Test [26] has as its system Staphylococcus epidermidis ATCC 12228.
The test system of test [27] is Candida albicans ATCC 10231.
The subject of test [28] is Candida albicans.
The subject of test [29] is Candida glabrata.
Test [30] has as its system Candida krusei.
For test [31], the system named is Candida parapsilosis.
Test [32] deals with Candida tropicalis.
In test [33] the test system is Bacillus megaterium Bm11.
Test [34] deals with Escherichia coli ML-35.
For test [35], the system named is Escherichia coli.
Test [36] has as its system Proteus mirabilis.
For test [37], the system named is Staphylococcus aureus.

Converted amounts (≈) assume the structure as drawn.

In the case of `CC[C@H](C)[C@H](NC(=O)CNC(=O)[C@H](CCC(N)=O)NC(=O)[C@H](Cc1ccccc1)NC(=O)[C@@H](NC(=O)[C@H](CCCCN)NC(=O)[C@H](CCCCN)NC(=O)[C@H](CC(C)C)NC(=O)[C@H](C)NC(=O)[C@H](CC(N)=O)NC(=O)[C@H](CC(C)C)NC(=O)[C@@H](N)Cc1c[nH]c2ccccc12)C(C)C)C(=O)N[C@@H](Cc1cnc[nH]1)C(=O)N[C@@H](CCC(=O)O)C(=O)N[C@@H](C)C(=O)N[C@H](C(=O)N[C@@H](CCCCN)C(=O)N[C@@H](CC(C)C)C(=O)N[C@H](C(=O)N[C@@H](CC(N)=O)C(=O)N[C@@H](CC(N)=O)C(=O)N[C@@H](Cc1cnc[nH]1)C(=O)N[C@H](C(=O)N[C@@H](CCC(N)=O)C(N)=O)C(C)C)[C@@H](C)CC)[C@@H](C)CC` [WLNALKKVFQGIHEAIKLINNHVQ], the MIC is ≥ 32 µM in test [1]; ≥ 64 µM in [2]; 16 µM (≈ 45 µg/mL) in [3]; 16 µM (≈ 45 µg/mL) in [4]; 16 µM (≈ 45 µg/mL) in test [5]; ≥ 32 µM in [6]. The MIC was 16 µM (≈ 45 µg/mL) in test [7]; 16 µM (≈ 45 µg/mL) in [8]; 16 µM (≈ 45 µg/mL) in [9]; 16 µM (≈ 45 µg/mL) in [10]; 32 µM (≈ 90 µg/mL) in test [11]; ≥ 32 µM in [12]. Also, the MIC in [13] is ≥ 32 µM; in [14], ≥ 64 µM.
In the case of `CC[C@H](C)[C@H](NC(=O)[C@H](Cc1c[nH]c2ccccc12)NC(C)=O)C(=O)N[C@@H](CCCCN)C(=O)N[C@@H](CCCN=C(N)N)C(=O)N[C@@H](CC(C)C)C(=O)N[C@@H](CC(N)=O)C(=O)N[C@@H](CO)C(=O)N[C@@H](Cc1c[nH]c2ccccc12)C(=O)N[C@@H](CC(C)C)C(=O)N[C@@H](CCCN=C(N)N)C(=O)N[C@@H](CCCCN)C(N)=O` [WIKRLNSWLRK], the MIC in test [15] is ≥ 32 µM.
With `CC[C@H](C)[C@H](NC(=O)CNC(=O)[C@H](CCC(N)=O)NC(=O)[C@H](CO)NC(=O)[C@@H](NC(=O)[C@H](CCCCN)NC(=O)[C@H](CCCCN)NC(=O)[C@H](CC(C)C)NC(=O)[C@H](C)NC(=O)[C@H](CC(N)=O)NC(=O)[C@H](CC(C)C)NC(=O)CN)C(C)C)C(=O)N[C@@H](Cc1cnc[nH]1)C(=O)N[C@@H](CCC(=O)O)C(=O)N[C@@H](C)C(=O)N[C@H](C(=O)N[C@@H](CCCCN)C(=O)N[C@@H](CC(C)C)C(=O)N[C@H](C(=O)N[C@@H](CC(N)=O)C(=O)N[C@@H](CC(N)=O)C(=O)N[C@@H](Cc1cnc[nH]1)C(=O)N[C@H](C(=O)N[C@@H](CCC(N)=O)C(N)=O)C(C)C)[C@@H](C)CC)[C@@H](C)CC` [GLNALKKVSQGIHEAIKLINNHVQ], the minimal inhibitory concentration (MIC) in test [1] was ≥ 32 µM; in [2], ≥ 64 µM; in test [3], 16 µM (≈ 42 µg/mL); in test [4], ≥ 32 µM; in [5], ≥ 32 µM; in test [6], ≥ 32 µM. For the same molecule, the MIC in test [7] is ≥ 64 µM; in [8], ≥ 64 µM; in test [9], 16 µM (≈ 42 µg/mL); in test [10] it was 16 µM (≈ 42 µg/mL); in test [11], 32 µM (≈ 84 µg/mL); in test [12] it was ≥ 64 µM. For the same molecule, the MIC in test [13] and in test [14] was ≥ 64 µM each time.
Regarding `CC[C@H](C)[C@H](NC(=O)[C@H](Cc1c[nH]c2ccccc12)NC(=O)[C@H](CCCCN)NC(=O)[C@H](Cc1c[nH]c2ccccc12)NC(=O)[C@@H](NC(=O)[C@H](Cc1c[nH]c2ccccc12)NC(=O)CNC(=O)[C@@H](NC(=O)[C@H](CCCCN)NC(=O)[C@H](CCCCN)NC(=O)[C@H](Cc1c[nH]c2ccccc12)NC(=O)[C@@H](N)CCCN=C(N)N)[C@@H](C)CC)C(C)C)C(N)=O` [RWKKIGWVWKWI], the MIC turned out to be 1 µM (≈ 1.69 µg/mL) in test [16]; 2 µM (≈ 3.37 µg/mL) in test [17]; 2 µM (≈ 3.37 µg/mL) in [18]; 2 µM (≈ 3.37 µg/mL) in [3]; 2 µM (≈ 3.37 µg/mL) in test [19]; 2 µM (≈ 3.37 µg/mL) in [20]. Also, the MIC in test [21] was 1 µM (≈ 1.69 µg/mL); in test [22], 1 µM (≈ 1.69 µg/mL); in [23], 2 µM (≈ 3.37 µg/mL); in test [24] it was 4 µM (≈ 6.74 µg/mL); in test [11], 2 µM (≈ 3.37 µg/mL); in test [25], 4 µM (≈ 6.74 µg/mL). Moreover, in test [26], the MIC was 4 µM (≈ 6.74 µg/mL).
For the molecule `CC[C@H](C)[C@H](NC(=O)[C@@H](NC(=O)CNC(=O)[C@H](CCCN=C(N)N)NC(=O)[C@H](CCC(N)=O)NC(=O)[C@H](Cc1cnc[nH]1)NC(=O)[C@H](CC(C)C)NC(=O)[C@H](CCCN=C(N)N)NC(=O)[C@@H](NC(=O)[C@H](CC(C)C)NC(=O)[C@@H](NC(=O)[C@@H](NC(=O)[C@H](CC(C)C)NC(=O)[C@H](CC(C)C)NC(=O)[C@@H](N)C(C)C)C(C)C)[C@@H](C)O)[C@@H](C)O)C(C)C)C(=O)N[C@@H](Cc1ccc(O)cc1)C(=O)N[C@@H](CCCN=C(N)N)C(=O)N[C@@H](CCCCN)C(=O)N[C@@H](Cc1c[nH]c2ccccc12)C(=O)N[C@@H](CCCN=C(N)N)C(=O)N[C@@H](Cc1cnc[nH]1)C(=O)N[C@@H](Cc1ccccc1)C(=O)N[C@@H](CO)C(=O)NCC(=O)N[C@@H](CCCN=C(N)N)C(=O)N[C@@H](CCCCN)C(=O)N[C@@H](Cc1ccc(O)cc1)C(=O)N[C@@H](CCCN=C(N)N)C(=O)O` [VLLVTLTRLHQRGVIYRKWRHFSGRKYR], the MIC was 25 µM (≈ 88.5 µg/mL) in [27]; 25 µM (≈ 88.5 µg/mL) in test [28]; ≥ 50 µM in test [29]; 25 µM (≈ 88.5 µg/mL) in test [30]; 25 µM (≈ 88.5 µg/mL) in [31]; 12.5 µM (≈ 44.3 µg/mL) in test [32].
For `CC[C@H](C)[C@H](NC(=O)CN)C(=O)N[C@@H](CC(C)C)C(=O)N[C@@H](CO)C(=O)N[C@@H](CCCCN)C(=O)N[C@@H](CC(C)C)C(=O)NCC(=O)N[C@@H](CCCCN)C(=O)N[C@@H](C)C(=O)N[C@@H](CC(C)C)C(=O)N[C@@H](CCCCN)C(=O)N[C@@H](CCCCN)C(=O)N[C@@H](C)C(=O)N[C@@H](C)C(=O)N[C@@H](CCCCN)C(=O)N[C@@H](Cc1cnc[nH]1)C(=O)N[C@@H](C)C(=O)N[C@@H](C)C(=O)N[C@@H](CCCCN)C(=O)N[C@@H](C)C=O` [GILSKLGKALKKAAKHAAKA], the MIC is 4 µM (≈ 7.95 µg/mL) in test [33]; 8 µM (≈ 15.9 µg/mL) in [34]; 4 µM (≈ 7.95 µg/mL) in test [35]; ≥ 32 µM in test [36]; 8 µM (≈ 15.9 µg/mL) in test [23]; 8 µM (≈ 15.9 µg/mL) in test [11]. Also, the MIC in test [37] is 2 µM (≈ 3.98 µg/mL).
